According to patent US6147097A, “Imidazole derivatives as anti-HIV agents” (Shionogi & Co., Ltd., priority 1994, dated 2000):
In brackets after ≈: the same amount, converted by molar mass. Read-outs that look alike come from different tables or passages of the source.

How the values were obtained:
HIV (HTLV-IIIB strain) = experiment: microbe, parasite or virus in culture; type: cell-based; details: Human immunodeficiency virus 1, IIIB, MT4, 120 h
Outline: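 MT-4 cells (3.5×10^4 per well) were infected with HIV at 60 pfu per well in the presence of diluted compound and incubated for 5 days at 37° C. Surviving cells were then measured by MTT reduction, with the formazan dissolved in acidified isopropanol containing Triton X-100.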

[1] = cytotoxicity in MT-4 cells (MTT, culture medium in place of HIV); type: cell-based; details: human
Outline: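 MT-4 cells (3.5×10^4 per well) exposed to diluted compound with culture medium added instead of HIV, 5 days at 37° C in CO2. MTT added for 1 h, formazan dissolved in Triton X-100/acidified isopropanol. OD read at 560 nm (690 nm reference) and compared with control.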

[2] = molecular target: T1, purified recombinant HIV-1 reverse transcriptase (Human immunodeficiency virus type 1 group M subtype B, UniProt P04585); experiment: reverse transcriptase inhibition, poly(rA)/(dT) template primer, [3H]dTTP uptake; type: biochemical
T1 construct: purified recombinant HIV-1 reverse transcriptase; made in house; host or cells: Escherichia coli
Outline: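 Inhibition reported as percent reduction of [3H]dTTP incorporation relative to solvent control, after 1 h at 37 °C at pH 8.3. Recombinant RT from E. coli, poly(rA) template with oligo(dT) primer, 4 μM unlabeled dTTP as substrate; product collected on DEAE filter mats.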

[3] = MT-4 cells, 60 pfu HIV per well, 37° C., 5 days, MTT, Tables 1 and 2, read-out: EC50
[4] = MT-4 cells, no virus, 37° C., 5 days, MTT, Table 3, read-out: CC50

Row | SMILES | EC50 (HIV (HTLV-IIIB strain); [3]) | CC50 at 120 h [1, 4] | IC50 [2] | CC50 at 120 h ([1]; mt-4 cells) | EC50 (HIV (HTLV-IIIB strain))
1 | CC(C)c1nc(CC(=O)O)n(C)c1Sc1cc(Cl)cc(Cl)c1 [Compound I-80, [5-(3,5-dichlorophenylthio)-4-isopropyl-1-nethyl-1H-imidazol-2-yl]acetic acid] | 0.5 to 1 µg/mL (≈ 1.39 to 2.78 µM) | 10 to 100 µg/mL (≈ 27.8 to 278 µM) | 3.06 µM |  | 
2 | CC(C)c1nc(CCOCc2ccccc2)n(Cc2ccncc2)c1Sc1cc(Cl)cc(Cl)c1 [Compound 122b, 4-[2-(2-benzyloxyethyl)-5-(3,5-dichlorophenylthio)-4-isopropyl-1H-imidazol-1-ylmethy]pyridine] | 0.5 to 1 µg/mL (≈ 0.976 to 1.95 µM) |  | 71.4 µM | 6.3 µg/mL (≈ 12.3 µM) | 
3 | CC(C)c1nc(CNS(C)(=O)=O)n(C)c1Sc1cc(Cl)cc(Cl)c1 [Compound I-87, 5-(3,5-dichlorophenylthio)-4-isopropyl-2-methanesulfonylaminomethyl-1-methyl-1H-imidazole] | 0.5 to 1 µg/mL (≈ 1.22 to 2.45 µM) | 10 to 100 µg/mL (≈ 24.5 to 245 µM) | > 245 µM |  | 
4 | CC(C)c1nc(CO)n(CCCCCCc2ccccc2)c1Sc1cc(Cl)cc(Cl)c1 [Compound I-125, 5-(3,5-dichlorophenylthio)-2-hydroxylmethyl-4-isopropyl-1-(6-phenlylhexyl)-1H-imidazole] | 0.5 to 1 µg/mL (≈ 1.05 to 2.09 µM) |  | > 209 µM | 12.5 µg/mL (≈ 26.2 µM) | 
5 | CC(C)c1nc(CO)n(CCCc2ccccc2)c1Sc1cc(Cl)cc(Cl)c1 [Compound I-122, 5-(3,5-dichlorophenylthio)-2-hydroxymethyl-4-isopropyl-1-(3-phenylpropyl)-1H-imidazole] | 0.008 µg/mL (≈ 0.0184 µM) |  | 7.12 µM | 6.3 to 12.5 µg/mL (≈ 14.5 to 28.7 µM) | 
6 | CCOC(=O)Cn1c(CCCOCc2ccccc2)nc(C(C)C)c1Sc1cc(Cl)cc(Cl)c1 [Compound 136d, (2-(3-benzyloxypropyl)-5-(3,5-dichlorophenylthio)-4-isopropyl-1H-imidazol-1-yl)-ethyl acetate] | 0.5 µg/mL |  | > 192 µM | 12.5 µg/mL | 
7 | CCn1c(CCOCc2ccccc2)nc(C(C)C)c1Sc1cc(Cl)cc(Cl)c1 [Compound 122a] | 0.13 µg/mL (≈ 0.289 µM) |  | 42.3 µM | 6.3 µg/mL (≈ 14 µM) | 
8 | CNC(=O)OCc1nc(C(C)C)c(Sc2cc(Cl)cc(Cl)c2)n1C [Compound I-43, 5-(3,5-dichlorophenylthio)-4-isopropyl-1-methyl-2-(N-methylcarbamoyl)oxymethyl-1H-imidazole] | 0.25 µg/mL (≈ 0.644 µM) | 1 to 10 µg/mL (≈ 2.58 to 25.8 µM) | 13.6 µM |  | 
9 | COC(=O)NCc1nc(C(C)C)c(Sc2cc(Cl)cc(Cl)c2)n1C [Compound I-91, 5-(3,5-dichlorophenylthio)-4-isopropyl-1-methyl-2-methoxycarbonylaminomethyl-1H-imidazole] | 0.06 µg/mL (≈ 0.155 µM) | 6.3 to 12.5 µg/mL (≈ 16.2 to 32.2 µM) | 0.876 µM |  | 
10 | CCn1c(CN)nc(C(C)C)c1Sc1ccccc1 [Compound I-75, 2-aminomethyl-1-ethyl-4-isopropyl-5-phenylthio-1H-imidazole] | 0.01 µg/mL (≈ 0.0363 µM) |  | 0.799 µM | 16.5 µg/mL (≈ 59.9 µM) | 
11 | CCn1c(CO)nc(C(C)C)c1Sc1cccc(Cl)c1 [Compound I-28, [1-ethyl-5-(3-chlorophenylthio)-4-isopropyl-1H-imidazol-2-yl]methanol] | 0.002 to 0.004 µg/mL (≈ 0.00643 to 0.0129 µM) | 12.5 µg/mL (≈ 40.2 µM) | 0.643 µM |  | 
12 | Cc1nc(C(C)C#N)c(Sc2cccc(Cl)c2)n1C (stereo not drawn) [Compound I-97, 2-[5-(3-chlorophenylthio)-1,2-dimethyl-1H-imidazol-4-yl]propiononitrile] | 0.06 to 0.13 µg/mL (≈ 0.206 to 0.445 µM) | 10 to 100 µg/mL (≈ 34.3 to 343 µM) | 25.4 µM |  | 
13 | CC(C)c1nc(CO)n(CCCc2ccccn2)c1Sc1cc(Cl)cc(Cl)c1 [Compound 112b, 5-(3,5-dichlorophenylthio)-4-isopropyl-2-hydroxymethyl-1-(3-(2-pyridyl)propyl)-1H-imidazole] | < 0.008 µg/mL |  | 5.96 µM | 6.3 to 12.5 µg/mL (≈ 14.4 to 28.6 µM) | 
14 | CC(C)c1nc(CNCCO)n(C)c1Sc1cc(Cl)cc(Cl)c1 [Compound I-79, 2-{[5-(3,5-dichlorophenylthio)-4-isopropyl-1-methyl-1H-imidazol-2-yl]methylamino} ethanol] | 0.25 µg/mL (≈ 0.668 µM) | 1 to 10 µg/mL (≈ 2.67 to 26.7 µM) | 34.5 µM |  | 
15 | CC(=O)OCc1nc(C(C)C)c(Sc2cc(Cl)cc(Cl)c2)n1C [Compound I-40, [5-(3,5-dichlorophenylthio)-4-isopropyl-1-methyl-1H-imidazol-2-yl]methyl acetate] | 0.016 µg/mL | 12.5 to 25 µg/mL | 28.7 µM |  | 
16 | CCCn1c(COC(N)=O)nc(C(C)C)c1Sc1cccc(Cl)c1 [Compound I-54, 2-carbamoyloxymethyl-5-(3-chlorophenylthio)-4-isopropyl-1-n-propyl-1H-imidazole] |  | 12.5 µg/mL (≈ 34 µM) | 1.25 µM |  | 0.004 µg/mL (≈ 0.0109 µM)
17 | CC(C)c1nc(CN)n(C(C)C)c1Sc1cc(Cl)cc(Cl)c1 [Compound I-72, 2-aminomethyl-5-(3,5-dichlorophenylthio)-1,4-diisopropylimidazole] | 0.03 to 0.06 µg/mL (≈ 0.0837 to 0.167 µM) | 1 to 10 µg/mL (≈ 2.79 to 27.9 µM) | 2.23 µM |  | 
18 | CC(C)c1nc(CCOC(N)=O)n(Cc2cccc([N+](=O)[O-])c2)c1Sc1cc(Cl)cc(Cl)c1 [Compound 128b, 2-(2-Carbamoyloxyethyl)-5-(3,5-dichlorophenylthio)-4-isopropyl-1-(m-nitrobenzyl)-1H-i-imidazole] | 0.13 µg/mL (≈ 0.255 µM) |  | > 196 µM | 6.3 to 12.5 µg/mL (≈ 12.4 to 24.5 µM) | 
19 | CC(=N)NCc1nc(C(C)C)c(Sc2cc(Cl)cc(Cl)c2)n1C [Compound I-84] | 1 µg/mL (≈ 2.69 µM) | 1 to 10 µg/mL (≈ 2.69 to 26.9 µM) | > 269 µM |  | 
20 | CCn1c(CCCOC(N)=O)nc(C(C)C)c1Sc1cc(Cl)cc(Cl)c1 [Compound I-149, 2-(3-carbamoyloxypropyl)-5-(3,5-dichlorophenylthio)-1-ethyl-4-isopropyl-1H-imidazole] | 0.01 µg/mL (≈ 0.024 µM) |  | 0.769 µM | 6.3 µg/mL (≈ 15.1 µM) | 
21 | CC(C)c1nc(CO)n(CF)c1Sc1cc(Cl)cc(Cl)c1 [Compound I-34, [1-fluoromethyl-5-(3,5-dichlorophenylthio)-4-isopropyl-1H-imidazol-2-yl]methanol] | 0.006 µg/mL (≈ 0.0172 µM) |  | 4.01 µM | 13.5 µg/mL (≈ 38.7 µM) | 
22 | Cc1cc(C)cc(Sc2c(C(C)C)nc(C)n2Cc2ccccc2)c1 [Compound I-4, 1-benzyl-5-(3,5-dimethylphenylthio)-4-isopropyl-2-methylimidazole] | 0.016 µg/mL (≈ 0.0456 µM) | 12.5 µg/mL (≈ 35.7 µM) | 4.85 µM |  | 
23 | CC(C)c1nc(CN)n(C)c1Sc1ccccc1 [Compound I-74, 2-aminomethyl-4-isopropyl-1-methyl-5-phenylthioimidazole] | 0.25 µg/mL (≈ 0.956 µM) | 12.5 to 25 µg/mL (≈ 47.8 to 95.6 µM) | 21.8 µM |  | 
24 | Cc1nc(C(C)C(=O)O)c(Sc2cccc(Cl)c2)n1C (stereo not drawn) [Compound I-99] | 6.3 µg/mL (≈ 20.3 µM) | > 100 µg/mL | > 322 µM |  | 
25 | CC(C)c1nc(CCCOCc2ccccc2)n(CCO)c1Sc1cc(Cl)cc(Cl)c1 [Compound 136e, 2-(2-(3-benzyloxypropyl)-5-(3,5-dichlorophenylthio)-4-isopropyl-1H-imidazol-1-yl)-ethanol] | 0.5 to 1 µg/mL (≈ 1.04 to 2.09 µM) |  | > 209 µM | 6.3 to 12.5 µg/mL (≈ 13.1 to 26.1 µM) | 
26 | CC(C)c1nc(COC(N)=O)n(Cc2cccnc2)c1Sc1cc(Cl)cc(Cl)c1 [Compound I-92, 2-carbamoyloxymethyl-5-(3,5-dichlorophenylthio)-4-isopropyl-1-(pyridin-3-yl)methyl-1H-imidazole] |  |  | 0.775 µM | 12.5 to 24 µg/mL (≈ 27.7 to 53.2 µM) | 0.001 µg/mL (≈ 0.00222 µM)
27 | CC(C)c1nc(CN)n(C)c1Sc1cccc(Cl)c1.Cl [Compound I-69, 2-aminomethyl-5-(3-chlorophenylthio)-4-isopropyl-1-methyl-1H-imidazole hydrochloride] | 0.25 µg/mL |  | 6.92 µM | 6.3 µg/mL | 
28 | CC(C)c1nc(CO)n(Cc2ccc(=O)[nH]c2)c1Sc1cc(Cl)cc(Cl)c1 [Compound 116a, 5-(3,5-dichlorophenylthio)-2-hydroxymethyl-1-(6-oxo-1,6-dihydro-pyridin-3-yl)methyl-4-isopropyl-1H-imidazole] | 0.004 µg/mL (≈ 0.00943 µM) |  | 3.06 µM | 30.7 µg/mL (≈ 72.3 µM) | 
29 | CCn1c(CCO)nc(C(C)C)c1Sc1cc(Cl)cc(Cl)c1 [Compound 123a, 2-[5-(3,5-dichlorophenylthio)-1-ethyl-4-isopropyl-1H-imidazol-2-yl]ethanol] | 0.0006 µg/mL (≈ 0.00167 µM) |  | 0.417 µM | 6.3 to 12.5 µg/mL (≈ 17.5 to 34.8 µM) | 
